Key:
Experiment in all cases: relative viability (nuclei count vs DMSO), 5 days (fraction); higher = more cells survive
[1] = compound: CC(C)CCN1c2nc(Nc3cc(F)c(O)c(F)c3)ncc2N(C)C(=O)C1C [BI-D1870] + Cc1nc(Nc2ncc(C(=O)Nc3c(C)cccc3Cl)s2)cc(N2CCN(CCO)CC2)n1 [Dasatinib] (partner 0.075 µM)
How it was run: (§1)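 Lung cancer cell lines in 1536-well plates were dosed by pin tool the day after seeding, either with one drug alone or with a fixed anchor-drug dose plus five library-drug doses (not always all listed) in √10 steps. After 5 days, cells were fixed and their nuclei stained in one step (final 0.05% Triton X-100, 1% formaldehyde, 1 ug/ml Hoechst), then counted on 4× images. Relative viability is the nuclei count in treated wells divided by that in vehicle wells. Values are medians of duplicate plates.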

[2] = compound: O=c1ncccn1[C@@H]1O[C@H](CO)[C@@H](O)[C@H]1O [Zebularine] + O=C(c1cc(Cc2n[nH]c(=O)c3ccccc23)ccc1F)N1CCN(C(=O)C2CC2)CC1 [Olaparib] (partner 8 µM)
How it was run: as §1

[3] = compound: CC(C)CCN1c2nc(Nc3cc(F)c(O)c(F)c3)ncc2N(C)C(=O)C1C [BI-D1870] + CS(=O)(=O)CCNCc1ccc(-c2ccc3ncnc(Nc4ccc(OCc5cccc(F)c5)c(Cl)c4)c3c2)o1 [Lapatinib] (partner 2 µM)
How it was run: as §1

[4] = compound: O=c1ncccn1[C@@H]1O[C@H](CO)[C@@H](O)[C@H]1O [Zebularine] + C[C@@H](Oc1cc(-c2cnn(C3CCNCC3)c2)cnc1N)c1c(Cl)ccc(F)c1Cl [Crizotinib] (partner 1 µM)
How it was run: as §1

Cell Line	relative viability ([1]; first compound 0.04 µM)	relative viability ([1]; first compound 0.1265 µM)	relative viability ([1]; first compound 0.4 µM)	relative viability ([1]; first compound 1.265 µM)	relative viability ([1]; first compound 4 µM)	relative viability ([2]; first compound 1 µM)	relative viability ([2]; first compound 3.162 µM)	relative viability ([2]; first compound 10 µM)	relative viability ([2]; first compound 31.62 µM)	relative viability ([2]; first compound 100 µM)	relative viability ([3]; first compound 0.04 µM)	relative viability ([3]; first compound 0.1265 µM)	relative viability ([3]; first compound 0.4 µM)	relative viability ([3]; first compound 1.265 µM)	relative viability ([3]; first compound 4 µM)	relative viability ([4]; first compound 1 µM)	relative viability ([4]; first compound 3.162 µM)	relative viability ([4]; first compound 10 µM)	relative viability ([4]; first compound 31.62 µM)	relative viability ([4]; first compound 100 µM)
201T	0.59	0.569	0.571	0.548	0.544	0.907	0.798	0.574	0.544	0.474	1.01	0.97	1.05	1.02	1.03	1.08	1.03	0.861	1.11	1.01
A549						0.475	0.165	0.163	0.156	0.0971	1.16	0.875	1.06	0.908	0.992	0.847	0.846	0.478	0.228	0.164
A-427	0.775	0.593	0.706	0.756	0.793	0.771	0.668	0.576	0.446	0.244	1.05	0.981	0.957	1.21	1.09	1.21	0.795	0.624	0.345	0.188
ABC-1	0.598	0.53		0.577	0.409	0.782	0.696	0.666	0.702	0.522	1.19	0.952	1.05	1.28	1.02	1.04	1.01	0.812	0.779	0.565
BEN	0.291	0.293	0.349	0.38	0.304	0.819	0.623	0.608	0.428	0.506	0.713	0.728	0.784	0.749	0.621	0.812	0.81	0.433	0.37	0.328
CAL-12T	0.489	0.272	0.411	0.512	0.176	0.837	0.721	0.548	0.444	0.273	0.799	0.672	0.664	1.03	0.539	0.657	0.596		0.719	0.574
COR-L23	0.58	0.414	0.504	0.565	0.434	0.336	0.329	0.277	0.178	0.138	1.07	0.929	0.992	0.798	0.982	0.633	0.742	0.454	0.351	0.182
COR-L 105	0.303	0.294	0.485	0.322	0.384	0.715	0.671	0.766	1.02	0.644	0.387	0.363	0.355	0.407	0.335	1.07	0.785	0.503	0.718	0.729
Calu-6						0.739	0.467	0.409	0.331	0.253	1.07	0.977	1.09	0.931	0.868	0.902	0.77	0.556	0.447	0.211
ChaGo-K-1	0.662	0.516	0.606	0.549	0.51	0.332	0.32	0.289	0.202	0.187						1.09	1	0.603	0.406	0.39
EBC-1						0.833	0.731	0.584	0.547	0.359	0.195	0.19	0.205	0.188	0.158	0.191	0.18		0.187	0.189
EKVX	0.719	0.456	0.522	0.554	0.454	0.952	0.813		0.757	0.664	0.236	0.18	0.195	0.223	0.2	1.11	0.87		0.896	1.11
EMC-BAC-2	0.344	0.326	0.377	0.316	0.296	0.559	0.477	0.364	0.526	0.488	0.823	0.887	0.815	0.951	0.899	0.795	0.67	0.689	0.777	0.824
EPLC-272H	0.414	0.38	0.338	0.364	0.32	0.955	0.774		0.66	0.41	0.878	0.879	0.734	1.01	0.852	0.969			0.839	0.685
H3255	0.436	0.458	0.367	0.433	0.48	0.624	0.597	0.502	0.577	0.513	0.221	0.266	0.258	0.296	0.244	0.945	0.853	0.576	0.91	0.858
HARA	0.195	0.195	0.233	0.282	0.302	0.901	0.491	0.926	0.647	0.437	0.973	0.722	0.842	0.998	0.74	1.17	1.11		1.17	0.834
HCC-15	0.656	0.533	0.582	0.517	0.287	0.864	0.652	0.465	0.371	0.307	0.94	0.832	0.774	0.795	0.592	1.02	0.761	0.586	0.769	0.219
